Laboratory results: patent US9149038B2, “4-amino-6-(heterocyclic)picolinates and 6-amino-2-(heterocyclic)pyrimidine-4-carboxylates and their use as herbicides” (Dow AgroSciences LLC, priority 2013, dated 2015)
Read-outs that look alike come from different tables or passages of the source.

Tests used:
[1] = test system: Key Broadleaf Weed and Crop Species; assay: Post-Emergent Test II: postemergent herbicidal activity, visual rating after 14 d (Table 7); format: in vivo; conditions: post-emergence, 336 h; for pest or weed control at 35 g/ha: 35 g ai/ha; for pest or weed control at 70 g/ha: 70 g ai/ha; for pest or weed control at 140 g/ha: 140 g ai/ha
Outline: (§1)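 Track-sprayed young seedlings (first/second true leaf) at 187 L/ha across a 2-fold rate series from the high rate down to 1/16×. Kept in greenhouse at 23-29° C day, subirrigated. Injury rated by eye after 14 d, 0 = no injury, 100 = complete kill.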

[2] = test system: Key Grass and Sedge Weeds as well as Grass Crops; assay: Post-Emergent Test II: postemergent herbicidal activity, visual rating after 14 d (Table 8); format: in vivo; conditions: post-emergence, 336 h; for pest or weed control at 35 g/ha: 35 g ai/ha; for pest or weed control at 70 g/ha: 70 g ai/ha; for pest or weed control at 140 g/ha: 140 g ai/ha
Outline: as §1

[3] = lambsquarters (Chenopodium album), read-out: Visual Growth Reduction (%) 14 Days After Application CHEAL
[4] = oilseed rape, canola (Brassica napus), read-out: Visual Growth Reduction (%) 14 Days After Application BRSNN
[5] = redroot pigweed (Amaranthus retroflexus), read-out: Visual Growth Reduction (%) 14 Days After Application AMARE
[6] = sunflower (Helianthus annuus), read-out: Visual Growth Reduction (%) 14 Days After Application HELAN
[7] = velvetleaf (Abutilon theophrasti), read-out: Visual Growth Reduction (%) 14 Days After Application ABUTH
[8] = wild poinsettia (Euphorbia heterophylla), read-out: Visual Growth Reduction (%) 14 Days After Application EPHHL
[9] = barnyardgrass (Echinochloa crus-galli), read-out: Visual Growth Reduction (%) 14 Days After Application ECHCG
[10] = giant foxtail (Setaria faberi), read-out: Visual Growth Reduction (%) 14 Days After Application SETFA
[11] = maize, corn (Zea mays), read-out: Visual Growth Reduction (%) 14 Days After Application ZEAMX
[12] = rice (Oryza sativa), read-out: Visual Growth Reduction (%) 14 Days After Application ORYSA
[13] = wheat, spring (Triticum aestivum), read-out: Visual Growth Reduction (%) 14 Days After Application TRZAS
[14] = yellow nutsedge (Cyperus esculentus), read-out: Visual Growth Reduction (%) 14 Days After Application CYPES

SMILES	pest or weed control at 35 g/ha [1, 3] [%]	pest or weed control at 70 g/ha [1, 3] [%]	pest or weed control at 140 g/ha [1, 3] [%]	pest or weed control at 35 g/ha [1, 4] [%]	pest or weed control at 70 g/ha [1, 4] [%]	pest or weed control at 140 g/ha [1, 4] [%]	pest or weed control at 35 g/ha [1, 5] [%]	pest or weed control at 70 g/ha [1, 5] [%]	pest or weed control at 140 g/ha [1, 5] [%]	pest or weed control at 35 g/ha [1, 6] [%]	pest or weed control at 70 g/ha [1, 6] [%]	pest or weed control at 140 g/ha [1, 6] [%]	pest or weed control at 35 g/ha [1, 7] [%]	pest or weed control at 70 g/ha [1, 7] [%]	pest or weed control at 140 g/ha [1, 7] [%]	pest or weed control at 35 g/ha [1, 8] [%]	pest or weed control at 70 g/ha [1, 8] [%]	pest or weed control at 140 g/ha [1, 8] [%]	pest or weed control at 35 g/ha [2, 9] [%]	pest or weed control at 70 g/ha [2, 9] [%]	other results
COC(=O)c1nc(-c2ccc(Br)c3c2OC(F)(F)O3)c(F)c(N)c1Cl [Compound 78, Methyl 4-amino-6-(7-bromo-2,2-difluorobenzo[d][1,3]dioxol-4-yl)-3-chloro-5-fluoropicolinate]	95 to 100	95 to 100	95 to 100	60 to 74	75 to 84	75 to 84	95 to 100	95 to 100	95 to 100	95 to 100	95 to 100	95 to 100	85 to 94	85 to 94	85 to 94	0 to 29	0 to 29	0 to 29	0 to 29	0 to 29	pest or weed control at 140 g/ha [2, 9]: 0 to 29%; pest or weed control at 35 g/ha [2, 10]: 0 to 29%; pest or weed control at 70 g/ha [2, 10]: 0 to 29%; pest or weed control at 140 g/ha [2, 10]: 0 to 29%; pest or weed control at 35 g/ha [2, 11]: 60 to 74%; pest or weed control at 70 g/ha [2, 11]: 60 to 74%; pest or weed control at 140 g/ha [2, 11]: 60 to 74%; pest or weed control at 35 g/ha [2, 12]: 0 to 29%; pest or weed control at 70 g/ha [2, 12]: 0 to 29%; pest or weed control at 140 g/ha [2, 12]: 0 to 29%; pest or weed control at 35 g/ha [2, 13]: 0 to 29%; pest or weed control at 70 g/ha [2, 13]: 0 to 29%; pest or weed control at 140 g/ha [2, 13]: 0 to 29%; pest or weed control at 35 g/ha [2, 14]: 0 to 29%; pest or weed control at 70 g/ha [2, 14]: 0 to 29%; pest or weed control at 140 g/ha [2, 14]: 0 to 29%
Nc1c(F)c(-c2cc3c(cc2F)OC(F)(F)O3)nc(C(=O)O)c1Cl [Compound 13]	60 to 74	85 to 94	85 to 94	0 to 29	30 to 44	45 to 59	0 to 29	0 to 29	0 to 29	85 to 94	85 to 94	85 to 94	60 to 74	75 to 84	75 to 84	45 to 59	75 to 84	95 to 100	75 to 84	95 to 100	pest or weed control at 140 g/ha [2, 9]: 85 to 94%; pest or weed control at 35 g/ha [2, 10]: 75 to 84%; pest or weed control at 70 g/ha [2, 10]: 75 to 84%; pest or weed control at 140 g/ha [2, 10]: 85 to 94%; pest or weed control at 35 g/ha [2, 11]: 60 to 74%; pest or weed control at 70 g/ha [2, 11]: 60 to 74%; pest or weed control at 140 g/ha [2, 11]: 75 to 84%; pest or weed control at 35 g/ha [2, 12]: 0 to 29%; pest or weed control at 70 g/ha [2, 12]: 0 to 29%; pest or weed control at 140 g/ha [2, 12]: 0 to 29%; pest or weed control at 35 g/ha [2, 13]: 45 to 59%; pest or weed control at 70 g/ha [2, 13]: 60 to 74%; pest or weed control at 140 g/ha [2, 13]: 60 to 74%; pest or weed control at 35 g/ha [2, 14]: 45 to 59%; pest or weed control at 70 g/ha [2, 14]: 75 to 84%; pest or weed control at 140 g/ha [2, 14]: 95 to 100%
COC(=O)c1nc(-c2ccc3c(c2F)OC(F)(F)O3)cc(N)c1Cl [Compound 37, Methyl 4-amino-3-chloro-6-(2,2,4-trifluorobenzo-[d][1,3]dioxol-5-yl)picolinate]	95 to 100	95 to 100	95 to 100	85 to 94	95 to 100	95 to 100	85 to 94	95 to 100	95 to 100	0 to 29	30 to 44	75 to 84	95 to 100	95 to 100	95 to 100	95 to 100	95 to 100	95 to 100	95 to 100	95 to 100	pest or weed control at 140 g/ha [2, 9]: 95 to 100%; pest or weed control at 35 g/ha [2, 10]: 60 to 74%; pest or weed control at 70 g/ha [2, 10]: 95 to 100%; pest or weed control at 140 g/ha [2, 10]: 95 to 100%; pest or weed control at 35 g/ha [2, 11]: 60 to 74%; pest or weed control at 70 g/ha [2, 11]: 75 to 84%; pest or weed control at 140 g/ha [2, 11]: 85 to 94%; pest or weed control at 35 g/ha [2, 12]: 0 to 29%; pest or weed control at 70 g/ha [2, 12]: 0 to 29%; pest or weed control at 140 g/ha [2, 12]: 0 to 29%; pest or weed control at 35 g/ha [2, 13]: 0 to 29%; pest or weed control at 70 g/ha [2, 13]: 0 to 29%; pest or weed control at 140 g/ha [2, 13]: 0 to 29%; pest or weed control at 35 g/ha [2, 14]: 95 to 100%; pest or weed control at 70 g/ha [2, 14]: 95 to 100%; pest or weed control at 140 g/ha [2, 14]: 95 to 100%
COC(=O)c1nc(-c2ccc3c(c2)OC(F)(F)O3)nc(N)c1OC [Compound 62]	0 to 29	0 to 29	0 to 29	45 to 59	45 to 59	60 to 74	0 to 29	0 to 29	0 to 29	85 to 94	75 to 84	95 to 100	45 to 59	85 to 94	85 to 94	95 to 100	95 to 100	95 to 100	85 to 94	85 to 94	pest or weed control at 140 g/ha [2, 9]: 95 to 100%; pest or weed control at 35 g/ha [2, 10]: 0 to 29%; pest or weed control at 70 g/ha [2, 10]: 30 to 44%; pest or weed control at 140 g/ha [2, 10]: 60 to 74%; pest or weed control at 35 g/ha [2, 11]: 95 to 100%; pest or weed control at 70 g/ha [2, 11]: 95 to 100%; pest or weed control at 140 g/ha [2, 11]: 95 to 100%; pest or weed control at 35 g/ha [2, 12]: 0 to 29%; pest or weed control at 70 g/ha [2, 12]: 0 to 29%; pest or weed control at 140 g/ha [2, 12]: 0 to 29%; pest or weed control at 35 g/ha [2, 13]: 0 to 29%; pest or weed control at 70 g/ha [2, 13]: 0 to 29%; pest or weed control at 140 g/ha [2, 13]: 0 to 29%; pest or weed control at 35 g/ha [2, 14]: 95 to 100%; pest or weed control at 70 g/ha [2, 14]: 95 to 100%; pest or weed control at 140 g/ha [2, 14]: 95 to 100%
